Source: patent publication US20250268827A1, “COMBINED MEDICINAL DRUG INCLUDING LIPOSOME COMPOSITION ENCOMPASSING TOPOTECAN OR SALT THEREOF AND DNA DAMAGE REPAIR INHIBITOR” (FUJIFILM Corporation, priority 2022, published 2025)
Where two headings read alike, the source gives them in different places.

How the values were obtained:
[1] = system: Capan-1 (pancreatic cancer cell line); assay: In vitro cell proliferation inhibition test with isobologram analysis (Test Example 3), Capan-1; type: cell-based, human; conditions: for effect of combined use with Lipo in isobologram analysis / DNA damage repair inhibitor (Ceralasertib) FIC: Capan-1; for effect of combined use with Lipo in isobologram analysis: DNA damage repair inhibitor combined with Lipo, 6 days culture; for IC50: Homo sapiens, CAPAN-1, Capan-1, read-out: IC50 value (nmol/L) of DNA damage repair inhibitor (Ceralasertib) at each of concentration points of Lipo
Protocol: (§1) A Cell Counting Kit-8 (Dojindo Molecular Technologies. Inc.) was used for a living cell detection method, and the absorbance at 460 nm after 4 hours of reagent addition was measured with a microplate reader to obtain the IC50 value. [table] As various DNA damage repair inhibitors to be used in combination with the liposome composition, the following DNA damage repair inhibitors were used; ceralasertib ([…] Biotechnology, Inc.) as an ATR inhibitor, prexasertib ([…] Biotechnology, Inc.) as a CHK1/2 inhibitor, […] Biotechnology, Inc.) as a DNA-PK inhibitor, […] Biotechnology, Inc.) as an ATM inhibitor, ZN-c3 ([…] Biotechnology, Inc.) as a WEE1 inhibitor, and olaparib ([…] Biotechnology, Inc.) as a PARP inhibitor. […] [table] […] First, the IC50 value of Lipo alone and the IC50 value of various DNA damage repair inhibitors alone were determined. Next, various DNA damage repair inhibitors were used in combination at each of the set concentration points of Lipo, and the IC50 value of the DNA damage repair inhibitors was determined. A value obtained by […] was denoted as “Lipo FIC”, and a value obtained by dividing this value by the IC50 value of the various DNA damage repair inhibitors was denoted as “various DNA damage repair inhibitor FIC”, and then these two values were recorded as one set of values. […] In addition, Lipo was used in combination at each of the concentration points of the various DNA damage repair inhibitors which were set in the same manner, and the IC50 value of the Lipo was determined. A value obtained by dividing this value by the IC50 value of Lipo alone was denoted as “Lipo FIC”, and a value obtained by dividing this value by the IC50 value of the various DNA damage repair inhibitors was denoted as “various DNA damage repair inhibitor FIC”, and then these two values were recorded as one set of values. […] As shown in Table 8 and Table 9, an isobologram was obtained by plotting each set of these values on the graph of various DNA damage repair inhibitors FIC v.s. Lipo FIC. […] A case of being plotted to the right indicates an “antagonistic effect”, which is regarded as an inappropriate effect of combined use. FIG. 5 to FIG. 21 show the results.

[2] = system: ES-2 (ovarian cancer cell line); assay: In vitro cell proliferation inhibition test with isobologram analysis (Test Example 3), ES-2; type: cell-based; conditions: DNA damage repair inhibitor combined with Lipo, 3 days culture
Protocol: as §1

[3] = system: DMS114 (lung cancer cell line); assay: In vitro cell proliferation inhibition test with isobologram analysis (Test Example 3), DMS 114; type: cell-based; conditions: DNA damage repair inhibitor combined with Lipo, 5 days culture
Protocol: as §1

[4] = system: Capan-1 cells (human pancreatic cancer cell line) subcutaneous tumor; assay: Drug efficacy in pancreatic cancer cell line (Capan-1) model, combined use of Lipo and olaparib (Test Example 1); type: in vivo, mouse Balb/cAJcl-nu/nu; conditions: same dosing as Table 1; relative to no-drug group; day 28

Structure (SMILES): C[C@@H]1COCCN1c1cc(C2([S@](C)(=N)=O)CC2)nc(-c2cc[nH]c3nccc2-3)n1 [Ceralasertib]
- effect of combined use with Lipo in isobologram analysis [1]: synergistic effect
- DNA damage repair inhibitor (Ceralasertib) FIC ([1]; Table 8, Lipo 0.0 nmol/L): 1.0
- DNA damage repair inhibitor (Ceralasertib) FIC ([1]; Table 8, Lipo 0.14 nmol/L): 0.7
- DNA damage repair inhibitor (Ceralasertib) FIC ([1]; Table 8, Lipo 0.41 nmol/L): 0.9
- DNA damage repair inhibitor (Ceralasertib) FIC ([1]; Table 8, Lipo 1.23 nmol/L): 0.9
- DNA damage repair inhibitor (Ceralasertib) FIC ([1]; Table 8, Lipo 3.7 nmol/L): 0.2
- DNA damage repair inhibitor (Ceralasertib) FIC ([1]; Table 8, Lipo 11.1 nmol/L): 0.02
- DNA damage repair inhibitor (Ceralasertib) FIC ([1]; Table 9, ceralasertib 0.0 nmol/L): 0.0
- DNA damage repair inhibitor (Ceralasertib) FIC ([1]; Table 9, ceralasertib 4.57 nmol/L with Lipo): 0.01
- DNA damage repair inhibitor (Ceralasertib) FIC ([1]; Table 9, ceralasertib 13.7 nmol/L with Lipo): 0.02
- DNA damage repair inhibitor (Ceralasertib) FIC ([1]; Table 9, ceralasertib 41.2 nmol/L with Lipo): 0.05
- DNA damage repair inhibitor (Ceralasertib) FIC ([1]; Table 9, ceralasertib 123 nmol/L with Lipo): 0.1
- DNA damage repair inhibitor (Ceralasertib) FIC ([1]; Table 9, ceralasertib 370 nmol/L with Lipo): 0.4
- IC50 ([1]; Lipo 0.0 nmol/L (ceralasertib alone)): 893 nmol/L
- IC50 ([1]; combined with Lipo 0.14 nmol/L): 634 nmol/L
- IC50 ([1]; combined with Lipo 0.41 nmol/L): 809 nmol/L
- IC50 ([1]; combined with Lipo 1.23 nmol/L): 798 nmol/L
- IC50 ([1]; combined with Lipo 3.7 nmol/L): 181 nmol/L
- IC50 ([1]; combined with Lipo 11.1 nmol/L): 14.9 nmol/L
- effect of combined use with Lipo in isobologram analysis [2]: synergistic effect
- effect of combined use with Lipo in isobologram analysis [3]: synergistic effect

Structure (SMILES): C=CCn1c(=O)c2cnc(Nc3ccc(N4CCN(C)CC4)cc3)nc2n1-c1ccc2c(n1)[C@@](O)(CC)CC2 [ZN-c3]
- effect of combined use with Lipo in isobologram analysis [1]: additive effect
- effect of combined use with Lipo in isobologram analysis [2]: synergistic effect
- effect of combined use with Lipo in isobologram analysis [3]: additive effect

Structure (SMILES): O=C(c1cc(Cc2n[nH]c(=O)c3ccccc23)ccc1F)N1CCN(C(=O)C2CC2)CC1 [Olaparib]
- effect of combined use with Lipo in isobologram analysis [1]: synergistic effect
- effect of combined use with Lipo in isobologram analysis [2]: synergistic effect
- Drug efficacy (tumor diameter) 28 days after administration, proportion to Comparative Example 1 [4]: (80%)
- effect of combined use with Lipo in isobologram analysis [3]: synergistic effect
- Safety (body weight: g) 28 days after administration (Capan-1 tumor-bearing female nude mice, Lipo 0.5 mg/kg or topotecan 5 mg/kg i.v. weekly x 4, olaparib 50 mg/kg i.p. daily x 6 days/week x 4 weeks, day 28): 103 g
- Safety (body weight) 28 days after administration, proportion to Comparative Example 1 (same dosing as Table 1, relative to no-drug group, day 28): (97%)

Structure (SMILES): COc1cc2ncc3c(c2cc1-c1cn(C)nc1C)n(-c1c(F)cncc1OC)c(=O)n3C [Example M4076]
- effect of combined use with Lipo in isobologram analysis [1]: additive effect
- effect of combined use with Lipo in isobologram analysis [2]: synergistic effect
- effect of combined use with Lipo in isobologram analysis [3]: synergistic effect

Structure (SMILES): COc1cccc(OCCCN)c1-c1cc(Nc2cnc(C#N)cn2)n[nH]1 [prexasertib]
- effect of combined use with Lipo in isobologram analysis [2]: synergistic effect
- effect of combined use with Lipo in isobologram analysis [3]: synergistic effect

Structure (SMILES): COc1ccc([C@@H](O)c2cc(-c3ncnc4cc(N5CCOCC5)ccc34)c(F)cc2Cl)nn1 [Example M3814]
- effect of combined use with Lipo in isobologram analysis [1]: synergistic effect
- effect of combined use with Lipo in isobologram analysis [2]: additive effect
- effect of combined use with Lipo in isobologram analysis [3]: synergistic effect

Structure (SMILES): CC[C@@]1(O)C(=O)OCc2c1cc1n(c2=O)Cc2cc3c(CN(C)C)c(O)ccc3nc2-1 [Topotecan]
- Drug efficacy (tumor diameter) 28 days after administration, proportion to Comparative Example 1 [4]: (80%)
- Safety (body weight) 28 days after administration, proportion to Comparative Example 1 (mouse, in vivo): (96%)
